Consider 12 compounds from patent US5248691A, “Furanoindolines” (Eli Lilly and Company, priority 1992, dated 1993).

The subject of data set [1] is human squamous cell lung carcinoma (T222). The data set is described as follows: In vitro cytotoxicity, [3H]leucine uptake, T222 cells. Type of data set: cell-based. To be noted: for IC50: read-out: IC50 (50% cytotoxic concentration). Here is the method: (§1) The cytotoxicities of 4-12 were determined by incubation (48 hours) of drug with a human squamous cell lung carcinoma (T222) and percent inhibition determined by measurement of [^3 H]leucine uptake. T222 (Masui, et al. Cancer, 44(3): 1002-1007, 1984) human squamous carcinoma and P3/UCLA (Varki, et al., Cancer Res. 44: 681-687, 1984) human lung carcinoma cells were grown in DMEM medium supplemented with 10% fetal bovine serum and 50 ug/mL gentamicin using standard tissue culture techniques. 1×10^4 target cells were distributed in each well of 96 well tissue culture plates and incubated in leucine deficient medium (leucine free DMEM plus 13 ug/mL L-leucine, 29.2 ug/mL L glutamine, 50 ug/mL gentamicin and 10% dialyzed fetal calf serum) for 16 hours at 37° C. in 5% CO2. The medium was then removed aseptically and compound dilutions were added in 200 ul of leucine deficient medium. Following an additional 48 hour incubation, 4 uCi ^3 H-leucine (NEN, Boston, Mass.) were added to each well and the plates were returned to the incubator for 24 hours. Radioactivity incorporated into macromolecules was determined using an automated cell harvester and liquid scintillation techniques. Data were evaluated as percent reduction in incorporation of radioactivity relative to controls incubated in medium without compound to yield an 50% cytotoxic concentration (IC50).

The next data set relates to T222 tumor. The data set can be described thus: Nude mouse xenograft, T222 tumor burden (i.v.). Type of data set: in vivo, nude mice. The arrangement: inhibition of growth of tumors (in words): dose or concentration left out as unconfirmed. To be noted: for Number of Deaths/Number of Mice / Percent Inhibition of Tumor Growth: days 3, 5 and 7. The procedure:
Prior to each xenograft experiment, cells were collected by treatment with Trypsin/EDTA (Gibco, Life Technologies, Grand Island, N.Y.) and washed with supplemented DMEM and finally suspended in Hanks balanced salt solution. 1×10^7 cells were injected s.c. into the flank of young adult female nude mice (Charles River Breeding Laboratories, Boston, Mass.). The mice were treated by i.v. injection in the tail vein at various time points. Tumor measurements were taken in two dimensions and converted to an estimate of mass using the formula [(length) (width^2)/2] as described by Geran, et al.. Cancer Chemother. Rep., 3:1-103, 1972. Control groups contained 10 mice with test groups containing 5 mice each. The Student test was used to evaluate differences between mean tumor masses.

Data set [2] deals with human lung adenocarcinoma (P3/UCLA). The data set can be described thus: In vitro cytotoxicity, similar protocol, P3/UCLA cells. Type of data set: cell-based. Here is the method:
as §1

Data set [3] relates to minor groove of double stranded DNA. To be noted: cited from earlier work.
The conditions of data set [4]: single intravenous subtherapeutic dose; healthy mice; cited from earlier work.
The mark [5] stands for this setting: T222 human squamous cell lung carcinoma, 48 hours incubation, [3H]leucine uptake.

≈ marks a conversion by molar mass, not a printed value. Read-outs that look alike come from different tables or passages of the source.

With `Cc1coc2c(O)cc3c(c12)C(CCl)CN3C(=O)c1cc2cc(NC(=O)c3cc4ccccc4o3)ccc2o1` (single isomer, unassigned; (+)) [Compound 8], the IC50 in data set [1] (setting [5]) stood at 0.37 ng/mL (≈ 0.684 nM).

In the case of `Cc1coc2c(O)cc3c(c12)C(CCl)CN3C(=O)c1cc2cc(NC(=O)c3cc4ccccc4o3)ccc2[nH]1` (single isomer, unassigned; (+)) [Compound 5], in data set [1] (setting [5]), the IC50 was 0.15 ng/mL (≈ 0.278 nM).

For `Cc1coc2c(O)cc3c(c12)C(CCl)CN3C(=O)c1cc2cc(NC(=O)c3cc4ccccc4[nH]3)ccc2o1` (single isomer, unassigned; (+)) [Compound 7], the IC50 in data set [1] (setting [5]) turned out to be 0.23 ng/mL (≈ 0.426 nM).

Turning to `Cc1coc2c(O)cc3c(c12)C(CCl)CN3C(=O)c1cc2cc(NC(=O)c3cc4ccccc4[nH]3)ccc2s1` (single isomer, unassigned; (+)) [Compound 10], the IC50 in data set [1] (setting [5]) came to 0.29 ng/mL (≈ 0.522 nM).

In the case of `Cc1coc2c(O)cc3c(c12)C(CCl)CN3C(=O)c1cc2cc(NC(=O)c3cc4ccccc4o3)ccc2s1` (single isomer, unassigned; (+)) [Compound 11], the IC50 in data set [1] (setting [5]) was 0.26 ng/mL (≈ 0.467 nM).

With `Cc1coc2c(O)cc3c(c12)C(CCl)CN3C(=O)c1cc2cc(NC(=O)c3cc4ccccc4[nH]3)ccc2[nH]1` (single isomer, unassigned; (+)) [Compound 4], the “Number of Deaths/Number of Mice” value with T222 tumor (0.05 mg/kg i.v.) was 0/5; in the data set with T222 tumor (0.1 mg/kg i.v.), 0/5; with T222 tumor (0.2 mg/kg i.v.), 1/5; with T222 tumor (0.4 mg/kg i.v.), 5/5. The “Percent Inhibition of Tumor Growth” value in the data set with T222 tumor (0.05 mg/kg i.v.) is on record as 68%; in the data set with T222 tumor (0.1 mg/kg i.v.), 73%; in the data set on T222 tumor (0.2 mg/kg i.v.), 85%. The “inhibition of growth of tumors (in words)” value in the data set on T222 tumor (intravenously on days 3, 5 and 7, T222 burden injected s.c. at day 0) is given as “inhibited the growth of tumors”. Moreover, the IC50 in data set [2] was found to be 0.27 ng/mL (≈ 0.501 nM); in data set [1] (setting [5]), 0.17 ng/mL (≈ 0.315 nM).

As for `COc1c(O)c2c(c3cc(C(=O)N4CCc5c4c(O)c(OC)c4[nH]c(C(=O)N6CC7CC78C6=CC(=O)c6[nH]cc(C)c68)cc54)[nH]c13)CCN2C(N)=O` (stereo not shown) [CC-1065], the DNA binding result in data set [3] is “binds covalently to the minor groove of double stranded DNA”. Besides, in data set [4], the “delayed deaths / hepatotoxicity” value is reported as “led to delayed deaths of healthy mice as a result of the hepatotoxicity”.

Take `CCC1(O)CC2CN(CCc3c([nH]c4ccccc34)C(C(=O)OC)(c3cc4c(cc3OC)N(C)C3C(O)(C(=O)NN)C(O)C5(CC)C=CCN6CCC43C65)C2)C1` (stereo not shown) [4-desacetylvinblastine-3-carboxhydrazide, reference compound]: the IC50 in data set [1] (Homo sapiens, T222, 48 h) is 3 ng/mL (≈ 3.9 nM).

In the case of `Cc1coc2c(O)cc3c(c12)C(CCl)CN3C(=O)c1cc2cc(NC(=O)c3cc4ccccc4s3)ccc2[nH]1` (single isomer, unassigned; (+)) [Compound 6], the IC50 in data set [1] (setting [5]) stood at 0.2 ng/mL (≈ 0.36 nM).

Turning to `Cc1coc2c(O)cc3c(c12)C(CCl)CN3C(=O)c1cc2cc(NC(=O)c3cc4ccccc4[nH]3)ccc2[nH]1` (stereo not drawn) [enantiomer of 4], the “antineoplastic potency relative to 4” value in data set [1] (T222 cell line, compared with 4) was “approximately ten fold less potent”.

As for `Cc1coc2c(O)cc3c(c12)C(CCl)CN3C(=O)c1cc2cc(NC(=O)c3cc4ccccc4s3)ccc2s1` (single isomer, unassigned; (+)) [Compound 12], in data set [1] (setting [5]), the IC50 worked out at 0.2 ng/mL (≈ 0.349 nM).

In the case of `Cc1coc2c(O)cc3c(c12)C(CCl)CN3C(=O)c1cc2cc(NC(=O)c3cc4ccccc4s3)ccc2o1` (single isomer, unassigned; (+)) [Compound 9], the IC50 in data set [1] (setting [5]) came out at 0.56 ng/mL (≈ 1.01 nM).
